Data published in patent US11413278B2, “Compounds and methods for promoting stress resistance” (priority 2015, dated 2022).
Where two headings read alike, the source gives them in different places.

Assays:
C. elegans = C. elegans lifespan assays (liquid and plate); assay type: in vivo, Caenorhabditis elegans; conditions: Caenorhabditis elegans, at 66 uM
WI-38 cells [1] = conditions: Assay 8(k); without H2O2, at 10 uM
Procedure: WI-38 cells were seeded on 384-well plates for 24 hrs and then incubated with small molecules for 24 hrs. […] Images were collected on an INCell Analyzer 2000 (GE) and analyzed with the Developer software.

NRF2 [2] = assay: qPCR analysis of NRF2-regulated genes; assay type: cell-based, human; conditions: Homo sapiens, 24 h, Assay 12(o), at 10 uM, qPCR
Procedure: (§1) For qPCR analysis, WI-38 cells were treated with small molecules (at 10 μM) (biological quadruplicates) for 24 hrs and processed for RNA isolation and reverse transcription (RT) with the Cells-to-Ct Kit (Life Technologies), following manufacturer's instructions. RT products were diluted with H2O and used for qPCR analysis on an ABI 7300 system (Life Technologies) (technical triplicates). Relative expression levels of target genes were normalized to the genes B2M, PPIA and GAPDH. To knock down the expression of FOXO3 or NRF2, WI-38 cells were transfected, using the RNAiMAX reagents (Life Technologies), with siRNA oligos (at 10 nM final concentration, 10 ml culture medium) for FOXO3 (Life Technologies) or NRF2 (Integrated DNA Technologies) on 10-cm petri dishes for 36 hrs, and then detached and aliquoted onto 96-well (for qPCR analysis) or 384-well plates (for H2O2-stress treatment). ˜24 hrs later, small molecules were introduced and incubated with cells for 24 hrs. Cells were then either processed with the Cells-to-Ct Kit to prepare RT products for qPCR analysis or subjected to H2O2 (700 μM) for 3 hrs and assayed for viability. The knockdown efficiency of FOXO3 or NRF2 was checked at 36 hrs post-transfection and at the end as well.
(§2) For qPCR analysis, WI-38 cells were treated with small molecules (at 10 μM) (biological quadruplicate) for 24 hrs and processed for RNA isolation and reverse transcription (RT) with the Cells-to-Ct Kit (Life Technologies), following manufacturer's instructions. RT products were diluted with H2O and used for qPCR analysis on a LightCycler 480 system (Roche) (technical triplicates). Relative expression levels of target genes were normalized to the genes B2M, PPIA and GAPDH. To knock down the expression of FOXO3 or NRF2, WI-38 cells were transfected with siRNA oligos (at 10 nM final concentration) for FOXO3 (Life Technologies) or NRF2 on 10-cm petri dish for 36 hrs, and then detached and aliquoted onto 96-well plates. ˜24 hrs later, small molecules were introduced and incubated with cells for 24 hrs. Cells were then processed with the Cells-to-Ct Kit to prepare RT products for qPCR analysis. The knockdown efficiency of FOXO3 or NRF2 was checked at 36 hrs post-transfection and at the end as well.
NRF2/SKN-1, the oxidative stress and xenobiotic phase 2 detoxification protein, can extend animal lifespan (Sykiotis and Bohmann, 2008; Tullet et al., 2008). Applicants analyzed these small molecules for their ability to increase the expression of NRF2-regulated genes, including HMOX1 (heme oxygenase (decycling) 1; anti-oxidant), NQO1 (NAD(P)H dehydrogenase, quinone 1; phase 2 detoxification enzyme), GCLC (glutamate-cysteine ligase, catalytic) and GSTM1 (glutathionine S transferase) (Hur and Gray, 2011; Suzuki et al., 2013).

WI-38 cells [3] = conditions: for EC50: read-out: Est. ED50; for Assay 1: H2O2-resistant: YES/NO, if NO, possibly due to repeated freezing/thawing of stocks
[4] = tested on: human dermal fibroblast (HDF) primary cells; assay: H2O2-resistance in primary human dermal fibroblasts; assay type: cell-based; conditions: YES/NO
NRF2 [5] = assay: in vitro; assay type: cell-based, human; conditions: 10 uM; YES/NO
Procedure: as §1, §2
Of these, O15 and O20 consistently (in 3 of 3 experiments) required NRF2 to promote H2O2-resistance, and their resistance capacities were reduced by ˜90% on average upon NRF2 knockdown under conditions tested.

WI-38 cells [6] = assay: MMS resistance assay; assay type: cell-based, human; conditions: YES/NO; for Assay 3: MMS-resistant: * indicates partial; for Assay 5: Triple resistant: H2O2, cadmium and MMS
Procedure: (§3) For many stress conditions tested previously, one significant correlation to longevity is the cellular resistance to H2O2 or CdCl2. Applicants then tested these small molecules, at five different final concentrations (0.25 μM to 20 μM), for cadmium and MMS resistance in WI-38 cells.
(§4) The setups on 384-well plates and incubation times were the same as for H2O2 until the time of incubation with the stressors, which was 12 hours for both cadmium and MMS assays. Applicants tested several conditions, including conditions used to assay fibroblasts from long-lived animals (Salmon et al., 2005). These conditions produced better results with the positive controls (KEAP1 and AKT1 siRNAs) in the MMS assay. Thus, for MMS, the cells were shifted from growth media—OptiMEM+10% FBS, to DMEM (Gibco)+2% BSA (no serum) just before adding small molecules, which occurred 24 hours before MMS addition.
(§5) Isolated small molecules were tested for MMS and cadmium resistance twice in two independent assays. Each small molecule was analyzed at five different concentrations (0.25 μM to 20 μM final concentration), with technical triplicates for each dose. Data were analyzed using a global variance t-test.

WI-38 cells [7] = assay: CdCl2 (cadmium) resistance assay; assay type: cell-based, human; conditions: YES/NO; for Assay 2: Cadmium-resistant: * indicates partial
Procedure: as §3, §4, §5

FOXO3 = assay: qPCR analysis of FOXO3-regulated genes; assay type: cell-based, human; conditions: Homo sapiens, 24 h, Assay 10(m), at 10 uM, qPCR
Procedure: as §1, §2
Many perturbations that increase lifespan and stress resistance in animals do so in a FOXO-dependent fashion (Kenyon, 2010c). Humans have several FOXO genes, but FOXO3, which promotes stress resistance in mammalian cell culture (Kops et al., 2002; Nemoto and Finkel, 2002; Tran et al., 2003), is the one that has been linked to exceptional longevity in humans (Anselmi et al., 2009; Flachsbart et al., 2009; Li et al., 2009; Pawlikowska et al., 2009; Soerensen et al., 2010; Willcox et al., 2008). FOXO1, in contrast, appears to be responsible for some symptoms of diabetes in mouse models (Cheng and White, 2011). For this reason, applicants have focused on analyzing potential ability of our small molecules to activate FOXO3. […] Another 4 molecules (Gr-7A, Gr-7C, O12 and O23) could induce robust expression (greater than 1.5-fold) of at least 2 FOXO3 target genes.

mTOR = mTOR inhibition (RPS6 phosphorylation status), In-Cell Western; assay type: cell-based, human
Procedure: In-Cell Western assays were performed, following a standard immuno-staining protocol. Briefly, WI-38 cells were treated with small molecules for 24 hrs, and then processed and incubated with primary antibody cocktail (Cell Signaling, mouse anti-RPS, 1:25; rabbit-anti-pRPS6-(Ser-235/236), 1:100) overnight at 4° C. Next day, samples were processed and incubated with fluorophore-conjugated secondary antibodies (Cell Signaling, DyLight 680-goat anti-mouse, 1:500; DyLight 800-goat anti-rabbit, 1:1,000). Images were collected on an Odyssey Imager (LI-COR) and analyzed with the Image Studio Lite software (version 5.0.21).
Mammalian target of rapamycin (mTOR) is a crucial regulator of cell growth and metabolism and has been implicated in aging and many diseases, including cancer, diabetes and neurological diseases (Dazert and Hall, 2011; Zoncu et al., 2011). […] In addition, the anti-diabetes drug metformin (Kalender et al., 2010), as well as other AMPK activators such as 2-deoxy-D-glucose (Inoki et al., 2003) and AICAR (Shaw et al., 2004), could inhibit mTORC1. Applicants examined the effects of our molecules (at three doses, 5 μM, 10 μM and 20 μM) on the phosphorylation status of ribosomal protein S6 (RPS6), a readout of mTOR activity, to ask whether they could inhibit mTOR.
In-Cell Western assays were performed, following the same procedures to analyze DNA-damage markers. WI-38 cells were incubated with small molecules for 24 hrs, and then processed and incubated with primary antibody cocktail (mouse anti-RPS, 1:25; rabbit-anti-pRPS6, 1:100) overnight at 4° C. Next day, samples were processed and incubated with fluorophore-conjugated secondary antibodies (goat anti-mouse, 1:500; goat anti-rabbit, 1:1,000) in antibody dilution buffer. Images were collected on an Odyssey Imager (LI-COR) and analyzed with the Image Studio Lite software.

[8] = Assay 2(z), 1.0 × 10^9 bacteria/ml, wild type + FuDR (2012 July), read-out: Lifespan assay in liquid
[9] = Assay 3(aa), 2.5 × 10^9 bacteria/ml, wild type + FuDR, read-out: Lifespan assay in liquid
[10] = Assay 4(ab), 2.0 × 10^10 bacteria/ml, CF512 worms, no FuDR, read-out: Lifespan assay on plates
[11] = read-out: Induction of NRF2-regulated genes: HMOX1 normalized fold-change
[12] = read-out: Induction of NRF2-regulated genes: NQO1 normalized fold-change
[13] = dose response 0.6-20 μM, H2O2-resistance
[14] = read-out: Induction of FOXO3-regulated genes: SOD2 normalized fold-change

Compound | ILS at 66 µM (C. elegans; [8]) [%] | ILS at 66 µM (C. elegans; [9]) [%] | ILS at 66 µM (C. elegans; [10]) [%] | PI cell-death imaging without H2O2 (indicating potential toxicity) (WI-38 cells [1]) | fold induction at 10 µM (NRF2 [2]; [11]) | fold induction at 10 µM (NRF2 [2]; [12]) | EC50 (WI-38 cells [3]; [13]) [µM] | Assay 6: H2O2-resistant, at 10 uM, human dermal fibroblast (HDF) primary cells [4] | Assay 1: H2O2-resistant (WI-38 cells [3]) | Assay 3: MMS-resistant (WI-38 cells [6]) | Assay 5: Triple resistant (WI-38 cells [6]) | Assay 4: H2O2- & Cd-resistant (WI-38 cells [7]) | Assay 2: Cadmium-resistant (WI-38 cells [7]) | fold induction at 10 µM (FOXO3; [14]) | other results
Cc1ccc(S(=O)(=O)/C(C#N)=C/c2c(Oc3ccc(Cl)c(C)c3)nc3ccccn3c2=O)cc1 [Gr-5C] | 32.6 | 1.6 | -6.9 | YES | 1.67 | 1.49 | 15.7 | YES |  |  |  |  |  |  | 
Oc1nc2ccccc2n2cccc12 [O4] |  |  |  |  |  |  |  | YES | YES | YES | YES | YES | YES |  | Assay 17: NRF2-dependency for H2O2-resistance (NRF2 [5]): YES; EC50 (WI-38 cells [3]): 11.2 µM
CO/C(O)=C1\C(C)=NC2=C(C(=O)CC(c3cccs3)C2)C1c1ccc(F)c(F)c1 (stereo not drawn) [O5] | 48.9 | 18.9 | 46.2 | YES | 2.15 |  | 20 | YES | YES | YES | YES | YES | YES | 0.77 | ILS at 66 µM (C. elegans; Assay 5(ac), 1.0 × 10^11 bacteria/ml, CF512 worms, no FuDR, read-out: Lifespan assay on plates): 46.3%; ILS at 66 µM (C. elegans; Assay 6(ad), 2.0 × 10^10 bacteria/ml, CF512 worms, no FuDR, read-out: Lifespan assay on plates): 10.2%; ILS at 66 µM (C. elegans; Assay 7(ae), 1.0 × 10^11 bacteria/ml, CF512 worms, no FuDR, read-out: Lifespan assay on plates): 32%; fold induction at 10 µM (FOXO3; read-out: Induction of FOXO3-regulated genes: GADD45A normalized fold-change): 0.45
Oc1nc(-c2ccccn2)nc2c1Cc1cc(F)ccc1O2 [O24] | 13 | 2.3 |  |  | 9.55 | 1.48 | 7.5 | YES | YES | YES | YES | YES | YES | 1.2 | fold induction at 10 µM (FOXO3; read-out: Induction of FOXO3-regulated genes: SESN1 normalized fold-change): 1.93; fold induction at 10 µM (FOXO3; read-out: Induction of FOXO3-regulated genes: TXNIP normalized fold-change): 0.61; fold induction at 10 µM (NRF2 [2]; read-out: Induction of NRF2-regulated genes: GCLC normalized fold-change): 0.7; fold induction at 10 µM (NRF2 [2]; read-out: Induction of NRF2-regulated genes: GSTM1 normalized fold-change): 1.24
CO[C@H]1C[C@@H]2CC[C@@H](C)[C@@](O)(O2)C(=O)C(=O)N2CCCC[C@H]2C(=O)O[C@H]([C@H](C)C[C@@H]2CC[C@@H](O)[C@H](OC)C2)CC(=O)[C@H](C)/C=C(\C)[C@@H](O)[C@@H](OC)C(=O)[C@H](C)C[C@H](C)/C=C/C=C/C=C/1C [rapamycin, reference compound] |  |  |  |  |  |  |  |  |  |  |  |  |  |  | Reduction of ratio of pRPS6/RPS6 by rapamycin (mTOR): ≥ 90%; Reduction of phosphorylated form of RPS6 by rapamycin (normalized) (mTOR; control): 95%
